From patent US8580545B2, “Biodegradable linkers for molecular therapies” (The Children's Hospital of Philadelphia, priority 2004, dated 2013)

Experiment: Hydrolysis of the ester bond of the cross-linker (model experiments)
Conditions: 37° C.

| Compound | t1/2 of the ester bond hydrolysis |
| --- | --- |
| O=C(CCSSc1ccccn1)NCCCOC(=O)CCCCC(=O)ON1C(=O)CC(S(=O)(=O)[O-])C1=O.[Na+] (centres unmarked) [cross-linker 1] | several weeks |
| O=C(CCCCC(=O)ON1C(=O)CC(S(=O)(=O)[O-])C1=O)NCC(=O)OCCSSc1ccccn1.[Na+] (centres unmarked) [cross-linker 2] | several days |
